# From patent US10168342B2, “Lipid probes and uses thereof” (THE SCRIPPS RESEARCH INSTITUTE, priority 2015, dated 2019)
# Read-outs that look alike come from different tables or passages of the source.
# Assays:
# [1] = target: AEA-DA lipid probe targets in Neuro2a cells (Mus musculus, UniProt Q9EQK7)
# [2] = target: T1, AEA-DA lipid probe targets in Neuro2a cells (Mus musculus, UniProt P10649)
# T1 sequence (P10649 1-218): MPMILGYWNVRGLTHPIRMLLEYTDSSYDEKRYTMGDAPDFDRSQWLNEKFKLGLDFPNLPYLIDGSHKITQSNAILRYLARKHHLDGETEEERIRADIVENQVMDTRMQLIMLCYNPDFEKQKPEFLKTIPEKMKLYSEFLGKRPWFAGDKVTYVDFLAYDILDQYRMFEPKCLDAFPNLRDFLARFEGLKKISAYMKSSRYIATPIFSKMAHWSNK
# [3] = target: T2, AEA-DA lipid probe targets in Neuro2a cells (Mus musculus, UniProt Q5U680)
# T2 sequence (Q5U680 1-274): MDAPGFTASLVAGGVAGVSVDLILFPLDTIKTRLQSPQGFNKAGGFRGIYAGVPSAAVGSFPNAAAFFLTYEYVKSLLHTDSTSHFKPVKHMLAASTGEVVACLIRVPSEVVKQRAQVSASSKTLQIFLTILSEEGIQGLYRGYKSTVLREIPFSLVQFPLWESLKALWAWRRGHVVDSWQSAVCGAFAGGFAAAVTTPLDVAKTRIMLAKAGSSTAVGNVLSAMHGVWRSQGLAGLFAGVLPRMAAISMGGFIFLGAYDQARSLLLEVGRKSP
# [4] = target: T3, AEA-DA lipid probe targets in Neuro2a cells (Mus musculus, UniProt Q8BMK4)
# T3 sequence (Q8BMK4 1-575): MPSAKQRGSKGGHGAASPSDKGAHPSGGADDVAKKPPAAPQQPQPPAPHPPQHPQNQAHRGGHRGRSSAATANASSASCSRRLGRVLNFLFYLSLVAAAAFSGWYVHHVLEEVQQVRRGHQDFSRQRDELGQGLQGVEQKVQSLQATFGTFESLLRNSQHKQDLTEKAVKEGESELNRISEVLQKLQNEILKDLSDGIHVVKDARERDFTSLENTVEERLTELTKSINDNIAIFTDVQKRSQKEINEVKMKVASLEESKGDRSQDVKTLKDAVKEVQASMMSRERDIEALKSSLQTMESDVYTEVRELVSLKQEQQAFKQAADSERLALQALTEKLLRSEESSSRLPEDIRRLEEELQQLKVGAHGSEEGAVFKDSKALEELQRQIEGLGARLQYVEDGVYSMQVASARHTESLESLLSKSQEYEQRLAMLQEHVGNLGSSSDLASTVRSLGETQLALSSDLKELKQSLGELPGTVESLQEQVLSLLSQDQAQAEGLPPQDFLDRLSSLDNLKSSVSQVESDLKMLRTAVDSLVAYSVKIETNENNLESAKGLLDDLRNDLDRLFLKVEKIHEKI
# [5] = target: T4, AEA-DA lipid probe targets in Neuro2a cells (Mus musculus, UniProt Q60692)
# T4 sequence (Q60692 1-238): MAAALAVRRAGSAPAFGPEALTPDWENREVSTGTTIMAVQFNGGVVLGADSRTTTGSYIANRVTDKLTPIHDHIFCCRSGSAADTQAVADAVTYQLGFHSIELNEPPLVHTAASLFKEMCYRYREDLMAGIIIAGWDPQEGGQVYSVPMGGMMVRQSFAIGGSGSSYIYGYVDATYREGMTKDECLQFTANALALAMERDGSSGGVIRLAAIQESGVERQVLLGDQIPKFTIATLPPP
# [6] = target: T5, AEA-DA lipid probe targets in Neuro2a cells (Mus musculus, UniProt P52875)
# T5 sequence (P52875 34-323): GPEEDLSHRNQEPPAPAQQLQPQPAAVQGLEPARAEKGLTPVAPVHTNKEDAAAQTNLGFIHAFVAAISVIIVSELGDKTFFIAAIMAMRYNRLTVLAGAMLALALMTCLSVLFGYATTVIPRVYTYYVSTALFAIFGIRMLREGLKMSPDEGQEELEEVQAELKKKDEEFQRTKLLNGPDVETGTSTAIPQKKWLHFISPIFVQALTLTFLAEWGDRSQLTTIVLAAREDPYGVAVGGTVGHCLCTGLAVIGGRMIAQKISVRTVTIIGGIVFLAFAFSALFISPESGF
# [7] = target: AEA-DA lipid probe targets in Neuro2a cells (Mus musculus, UniProt Q9D880)
# AEA-DA lipid probe targets in Neuro2a cells (Mus musculus, UniProt Q9D880), sequence (Q9D880 22-353): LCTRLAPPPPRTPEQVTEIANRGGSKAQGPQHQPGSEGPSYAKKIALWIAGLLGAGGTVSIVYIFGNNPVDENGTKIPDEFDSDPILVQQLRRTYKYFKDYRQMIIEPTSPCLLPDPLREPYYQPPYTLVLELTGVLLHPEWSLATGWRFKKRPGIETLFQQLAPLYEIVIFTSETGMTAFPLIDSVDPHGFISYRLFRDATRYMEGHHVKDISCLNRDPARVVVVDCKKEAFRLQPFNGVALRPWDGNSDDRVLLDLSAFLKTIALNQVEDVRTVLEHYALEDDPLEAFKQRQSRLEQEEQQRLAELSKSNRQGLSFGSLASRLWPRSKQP
# [8] = target: T6, AEA-DA lipid probe targets in Neuro2a cells (Mus musculus, UniProt Q61335)
# T6 sequence (Q61335 1-245): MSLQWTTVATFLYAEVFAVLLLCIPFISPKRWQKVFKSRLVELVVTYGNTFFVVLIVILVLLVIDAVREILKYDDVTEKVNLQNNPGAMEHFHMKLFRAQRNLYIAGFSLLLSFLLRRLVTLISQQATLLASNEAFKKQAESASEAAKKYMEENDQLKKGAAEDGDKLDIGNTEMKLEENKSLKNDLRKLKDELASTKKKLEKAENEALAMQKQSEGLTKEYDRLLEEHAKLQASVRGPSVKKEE
# [9] = target: T7, AEA-DA lipid probe targets in Neuro2a cells (Mus musculus, UniProt Q61207); conditions: for SILAC ratio, PSAP (P07602): Neuro2a cells, AEA-DA probe
# T7 sequence (Q61207 60-557): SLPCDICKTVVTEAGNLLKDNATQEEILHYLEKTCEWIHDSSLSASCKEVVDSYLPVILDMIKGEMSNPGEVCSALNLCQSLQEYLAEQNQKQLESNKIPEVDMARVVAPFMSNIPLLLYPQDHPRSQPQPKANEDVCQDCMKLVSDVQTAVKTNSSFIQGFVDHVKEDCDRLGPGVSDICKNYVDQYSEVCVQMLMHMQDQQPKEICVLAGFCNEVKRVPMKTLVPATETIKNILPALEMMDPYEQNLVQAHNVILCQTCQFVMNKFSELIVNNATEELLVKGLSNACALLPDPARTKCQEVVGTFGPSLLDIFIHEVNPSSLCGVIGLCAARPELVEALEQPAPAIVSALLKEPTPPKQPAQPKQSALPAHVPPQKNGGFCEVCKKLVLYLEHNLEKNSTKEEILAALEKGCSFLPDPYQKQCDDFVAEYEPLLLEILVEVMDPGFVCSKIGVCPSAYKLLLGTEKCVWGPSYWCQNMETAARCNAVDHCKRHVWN
# AEA-DA lipid probe targets in Neuro2a cells (Mus musculus, UniProt Q9EQK7), sequence (Q9EQK7 whole entry): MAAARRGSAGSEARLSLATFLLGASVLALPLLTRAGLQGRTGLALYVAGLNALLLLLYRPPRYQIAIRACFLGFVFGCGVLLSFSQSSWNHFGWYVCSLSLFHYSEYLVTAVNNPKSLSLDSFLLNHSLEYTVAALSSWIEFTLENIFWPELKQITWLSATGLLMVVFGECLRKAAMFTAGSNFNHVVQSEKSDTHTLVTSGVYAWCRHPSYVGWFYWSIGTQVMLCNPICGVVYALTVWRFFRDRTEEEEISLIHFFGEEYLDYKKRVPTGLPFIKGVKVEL
smiles,measurement,setting,value
"CCCCC/C=C\C/C=C\C/C=C\C/C=C\CCCC(=O)NCCO [AEA, anandamide, reference compound]",SILAC ratio Icmt,[1]; competitor 200 μM,1.5
same,"SILAC ratio, Gstm1",[2]; competitor 200 μM,2.3
same,"SILAC ratio, Slc25a26",[3]; competitor 200 μM,1.0
same,"SILAC ratio, Ckap4",[4]; competitor 200 μM,2.0
same,SILAC ratio Psmb6,[5]; competitor 200 μM,1.4
same,"SILAC ratio, Tmem165",[6]; competitor 200 μM,1.5
same,SILAC ratio Timm50,[7]; competitor 200 μM,1.2
same,"SILAC ratio, Bcap31",[8]; competitor 200 μM,2.3
same,"SILAC ratio, PSAP (P07602)",[9]; competitor 200 μM,1.4
same,SILAC ratio Psap,[9]; competitor 200 μM,1.4
"O=C(/C=C/c1cccnc1)NCCCCC1CCN(C(=O)c2ccccc2)CC1 [FK-866, reference compound]",SILAC ratio Icmt,[1]; competitor 25 μM,1.3
same,"SILAC ratio, Gstm1",[2]; competitor 25 μM,1.5
same,"SILAC ratio, Slc25a26",[3]; competitor 25 μM,0.8
same,"SILAC ratio, Ckap4",[4]; competitor 25 μM,1.1
same,SILAC ratio Psmb6,[5]; competitor 25 μM,1.4
same,"SILAC ratio, Tmem165",[6]; competitor 25 μM,1.1
same,SILAC ratio Timm50,[7]; competitor 25 μM,1.1
same,"SILAC ratio, Bcap31",[8]; competitor 25 μM,1.6
same,"SILAC ratio, PSAP (P07602)",[9]; competitor 25 μM,1.0
same,SILAC ratio Psap,[9]; competitor 25 μM,1.0
"CN1CCN(C(=O)c2c(-c3ccccc3)c3cc([N+](=O)[O-])ccc3n2C)CC1 [KML110, (1-Methyl-5-nitro-3-phenyl-1H-indol-2-yl)(4-methylpiperazin-1-yl)methanone]",SILAC ratio Icmt,[1]; competitor 25 μM,1.0
same,"SILAC ratio, Gstm1",[2]; competitor 25 μM,2.2
same,"SILAC ratio, Slc25a26",[3]; competitor 25 μM,0.7
same,"SILAC ratio, Ckap4",[4]; competitor 25 μM,1.4
same,SILAC ratio Psmb6,[5]; competitor 25 μM,1.9
same,"SILAC ratio, Tmem165",[6]; competitor 25 μM,1.5
same,SILAC ratio Timm50,[7]; competitor 25 μM,1.1
same,"SILAC ratio, Bcap31",[8]; competitor 25 μM,2.0
same,SILAC ratio Psap,[9]; competitor 25 μM,1.3
"CN1CCN(C(=O)c2[nH]c3ccc([N+](=O)[O-])cc3c2-c2ccccc2)CC1 [MJN228, (4-Methylpiperazin-1-yl)(5-nitro-3-phenyl-1H-indol-2-yl)methanone]",SILAC ratio Icmt,[1]; competitor 10 μM,0.9
same,SILAC ratio Icmt,[1]; competitor 25 μM,0.9
same,SILAC ratio Icmt,[1]; competitor 50 μM,0.6
same,SILAC ratio Icmt,[1]; competitor 100 μM,0.5
same,"SILAC ratio, Gstm1",[2]; competitor 10 μM,1.7
same,"SILAC ratio, Gstm1",[2]; competitor 25 μM,1.7
same,"SILAC ratio, Gstm1",[2]; competitor 50 μM,2.1
same,"SILAC ratio, Gstm1",[2]; competitor 100 μM,2.6
same,"SILAC ratio, Slc25a26",[3]; competitor 10 μM,0.9
same,"SILAC ratio, Slc25a26",[3]; competitor 25 μM,0.7
same,"SILAC ratio, Slc25a26",[3]; competitor 50 μM,0.3
same,"SILAC ratio, Slc25a26",[3]; competitor 100 μM,0.4
same,"SILAC ratio, Ckap4",[4]; competitor 10 μM,1.3
same,"SILAC ratio, Ckap4",[4]; competitor 25 μM,1.4
same,"SILAC ratio, Ckap4",[4]; competitor 50 μM,1.3
same,"SILAC ratio, Ckap4",[4]; competitor 100 μM,1.8
same,SILAC ratio Psmb6,[5]; competitor 10 μM,1.3
same,SILAC ratio Psmb6,[5]; competitor 25 μM,1.5
same,SILAC ratio Psmb6,[5]; competitor 50 μM,1.4
same,SILAC ratio Psmb6,[5]; competitor 100 μM,2.5
same,"SILAC ratio, Tmem165",[6]; competitor 10 μM,1.0
same,"SILAC ratio, Tmem165",[6]; competitor 25 μM,1.2
same,"SILAC ratio, Tmem165",[6]; competitor 100 μM,1.5
same,SILAC ratio Timm50,[7]; competitor 10 μM,1.2
same,SILAC ratio Timm50,[7]; competitor 25 μM,1.3
same,SILAC ratio Timm50,[7]; competitor 50 μM,1.1
same,SILAC ratio Timm50,[7]; competitor 100 μM,1.2
same,"SILAC ratio, Bcap31",[8]; competitor 10 μM,2.1
same,"SILAC ratio, Bcap31",[8]; competitor 25 μM,2.5
same,"SILAC ratio, Bcap31",[8]; competitor 50 μM,3.8
same,"SILAC ratio, Bcap31",[8]; competitor 100 μM,4.0
same,"SILAC ratio, PSAP (P07602)",[9]; competitor 25 μM,1.4
same,SILAC ratio Psap,[9]; competitor 10 μM,1.1
same,SILAC ratio Psap,[9]; competitor 25 μM,1.4
same,SILAC ratio Psap,[9]; competitor 50 μM,1.4
same,SILAC ratio Psap,[9]; competitor 100 μM,1.6
"C=CCN(C)CCCCCCOc1ccc(C(=O)c2ccc(Br)cc2)c(F)c1 [Ro 48-8071, reference compound]",SILAC ratio Icmt,[1]; competitor 25 μM,1.6
same,"SILAC ratio, Gstm1",[2]; competitor 25 μM,1.4
same,"SILAC ratio, Slc25a26",[3]; competitor 25 μM,0.7
same,"SILAC ratio, Ckap4",[4]; competitor 25 μM,1.1
same,SILAC ratio Psmb6,[5]; competitor 25 μM,1.0
same,"SILAC ratio, Tmem165",[6]; competitor 25 μM,1.1
same,SILAC ratio Timm50,[7]; competitor 25 μM,0.9
same,"SILAC ratio, Bcap31",[8]; competitor 25 μM,1.4
same,"SILAC ratio, PSAP (P07602)",[9]; competitor 25 μM,1.0
same,SILAC ratio Psap,[9]; competitor 25 μM,1.0
